Literature values as cited in patent US6841573B2, “Use of arachidonic acid as a method of increasing skeletal muscle mass” (Molecular Nutrition, priority 2002, dated 2005).

Key:
cox-1 enzyme = target: T1, cox-1 enzyme (Homo sapiens, UniProt P23219); conditions: by inhibiting the normal post-exercise increase in PGF2alpha
T1 construct: host or cells: skeletal muscle in vivo (endogenous enzyme)

[1] = after administering the precursor
[2] = after oral 200 mg and 1.5 g supplemented arachidonic acid per day, human, drawn blood
[3] = serum from forearm and kidney of human volunteers after direct infusion into brachial or renal artery
[4] = 14C-labeled arachidonic acid, human skeletal muscle and kidney homogenates
intact rabbit muscle = conditions: unstimulated intact rabbit muscle, in-vitro

T1 sequence (P23219 24-599): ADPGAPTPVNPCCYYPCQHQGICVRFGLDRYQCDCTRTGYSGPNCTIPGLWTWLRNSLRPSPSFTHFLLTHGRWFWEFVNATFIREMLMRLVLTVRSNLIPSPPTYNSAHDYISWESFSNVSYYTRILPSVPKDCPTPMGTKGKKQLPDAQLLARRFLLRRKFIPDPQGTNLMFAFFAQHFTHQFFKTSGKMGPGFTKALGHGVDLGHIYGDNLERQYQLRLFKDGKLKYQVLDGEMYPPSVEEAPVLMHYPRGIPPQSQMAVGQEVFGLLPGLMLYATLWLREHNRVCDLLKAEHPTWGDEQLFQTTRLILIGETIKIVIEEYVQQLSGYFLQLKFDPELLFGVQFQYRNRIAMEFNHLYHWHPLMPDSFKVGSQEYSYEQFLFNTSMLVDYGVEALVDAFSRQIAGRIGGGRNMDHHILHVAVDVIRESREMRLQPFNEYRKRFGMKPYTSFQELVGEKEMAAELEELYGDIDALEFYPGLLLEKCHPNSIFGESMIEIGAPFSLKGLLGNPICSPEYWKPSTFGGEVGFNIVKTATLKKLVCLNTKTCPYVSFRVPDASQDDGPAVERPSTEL

Row | Structure (SMILES) | effect on rates of protein synthesis (intact rabbit muscle) | also measured
1 | CC(=O)Nc1ccc(O)cc1 [acetaminophen] | – | effect on anabolic response of muscle to resistance exercise (cox-1 enzyme): profoundly diminish the anabolic response
2 | C[C@]12CCC(=O)C=C1CC[C@@H]1[C@@H]2CC[C@]2(C)C(=O)CC[C@@H]12 [androstenedione] | – | period of subsequent decline of active hormone (testosterone) concentration [1]: three to four; time to peak concentration of active hormone (testosterone) [1]: ≤ 90 min
3 | CCCCC/C=C\C/C=C\C/C=C\C/C=C\CCCC(=O)O [arachidonic acid] | – | in-vitro secretion of LTB4 and PGE2 [2]: measurably increase; labeled metabolites found in serum [3]: PGD2, PGE2, PGF2 alpha, 6-keto-PGF1 alpha and 13,14-dihydro-15-keto-PGE2 (Me) were all found; prostaglandins produced during incubation [4]: PGD2, PGE2, PGF2 alpha and 6-keto-PGF1 alpha
4 | CCCCC/C=C\C\C=C/C=C/C=C/[C@@H](SC[C@H](NC(=O)CC[C@H](N)C(=O)O)C(=O)NCC(=O)O)[C@@H](O)CCCC(=O)O [leukotriene C4] | failed to do so | –
5 | CCCCC/C=C\C\C=C/C=C/C=C/[C@@H](SC[C@H](N)C(=O)NCC(=O)O)[C@@H](O)CCCC(=O)O [leukotriene D4] | failed to do so | –
6 | CCCCC[C@H](O)/C=C/[C@H]1C=CC(=O)[C@@H]1CCCCCCC(=O)O [prostaglandin A1] | increased rates of protein synthesis | –
7 | CCCCC[C@H](O)/C=C/[C@H]1C(=O)C[C@H](O)[C@@H]1C/C=C\CCCC(=O)O [prostaglandin D2, PGD2] | failed to do so | –
8 | CCCCC[C@H](O)/C=C/[C@H]1[C@H](O)CC(=O)[C@@H]1C/C=C\CCCC(=O)O [prostaglandin E2, PGE2] | failed to do so | –
9 | CCCCC[C@H](O)/C=C/[C@@H]1[C@@H](C/C=C\CCCC(=O)O)[C@@H](O)C[C@H]1O [prostaglandin F2 alpha, PGF2alpha] | increased rates of protein synthesis | –
